How the values were obtained:
broad-leaved weeds [1] = experiment: Post-emergence test (Example B); format: in vivo; details: test plants of 5-15 cm height sprayed, 2,000 l water/ha, rated after three weeks vs untreated control (0%=no action, 100%=total destruction)
Protocol: (§1) To produce a suitable preparation of active compound, 1 part by weight of active compound is mixed with the stated amount of solvent, the stated amount of emulsifier is added and the concentrate is diluted with water to the desired concentration.
Test plants which have a height of 5-15 cm are sprayed with the preparation of the active compound in such a way as to apply the particular amounts of active compound desired per unit area. The concentration of the spray liquor is chosen so that the particular amounts of active compound desired are applied in 2,000 1 of water/ha. After three weeks, the degree of damage to the plants is rated in % damage in comparison to the development of the untreated control.
(§2) 0%=no action (like untreated control) 100%=total destruction

broad-leaved weeds [2] = experiment: Pre-emergence test (Example A); format: in vivo; details: soil watered with preparation 24 hours after sowing, rated after three weeks vs untreated control (0%=no action, 100%=total destruction)
Protocol: Solvent: 5 parts by weight of acetone
Emulsifier: 1 part by weight of alkylaryl polyglycol ether
as §1
Seeds of the test plants are sown in normal soil, and, after 24 hours, the soil is watered with the preparation of the active compound. It is expedient to keep constant the amount of water per unit area. The concentration of the active compound in the preparation is of no importance, only the amount of active compound applied per unit area being decisive.
After three weeks, the degree of damage to the plants is rated in % damage in comparison to the development of the untreated control. The figures denote:
as §2

Structure (SMILES) | melting point | action against broad-leaved weeds (degree of damage to the plants) (broad-leaved weeds [1]) | action against broad-leaved weeds (degree of damage to the plants) (broad-leaved weeds [2])
CCOc1cccc(C)c1S(=O)(=O)NC(=O)n1nc(OCC)n(C)c1=O [Example 9, 5-ethoxy-4-methyl-2-(2-ethoxy-6-methyl-phenylsulphonylaminocarbonyl)-2,4-dihydro-3H-1,2,4-triazol-3-one] | 162 °C |  | 
CCOc1nn(C(=O)NS(=O)(=O)c2c(C)cccc2OC(C)C)c(=O)n1C [Example 1, 5-ethoxy-4-methyl-2-(2-isopropoxy-6-methyl-phenylsulphonyl-aminocarbonyl)-2,4-dihydro-3H-1,2,4-triazol-3-one] |  | very strong action | very strong action
